{"source": "patent US20210290581A1", "about": "“NEUROREGENERATION IMPROVED BY KETONE” (UNIVERSITY OF SOUTH FLORIDA, priority 2016, published 2021)", "key": {"rat primary neurons [1]": {"system": "rat primary neurons", "assay": "immunofluorescence staining of the scratch assay (cell nuclei, Beta tubulin, synapsins)", "assay_type": "cell-based, Sprague Dawley rats", "conditions": "2 mM; after 24 hours; 10×, 20×, 60×; compared to control", "method": "(§1) Cortical neurons from embryonic (E18) Sprague Dawley rats were isolated and cultured as described in Katnic, Guerrero et al. 2006. Briefly, excised brains were digested with 0.25% trypsin. Isolated cells were suspended in DMEM supplemented with fetal bovine serum (FBS, 10%, heat inactivated), penicillin (100 IU/ml), streptomycin ([…]) and amphotericin B1 ([…]) (Antibiotic/Antimycotic) and plated on poly-L-lysine coated coverslips. Following 24 hour incubation, the DMEM solution was replaced with Neurobasal media supplemented with B-27 (10 ml) and 0.5 mM L-glutamine. 3 week old rat primary neurons were exposed to 2 mM R,S-Sodium-3-hydroxibutyrate. The cell monolayer was scraped with a P100 pipette tip to create a scratch. Cell debris was removed by washing with culture medium. 100 snapshots were taken of the cell migration/cell regeneration into the scratch space over 24 hours by CytoSmart system.\nThe primary neurons underwent immunofluorescence staining. This fluorescence imaging on the scratch assay (after 24 hours/3-week old primary neurons) can be seen in FIGS. 6A-6B, 7A-7B, 8A-8B, and 9A-9B. The images have been lightened for illustrative purposes. Each of these figures includes four (4) images, labeled as I-IV. […]"}, "rat primary neurons [2]": {"system": "rat primary neurons", "assay": "scratch assay in primary neuronal cell cultures followed for 24 hours with CytoSmart system", "assay_type": "cell-based, Sprague Dawley rats", "conditions": "2 mM", "method": "Ketone bodies serve as alternative fuel for the brain when glucose availability is limited. In humans, BHB is synthesized in the liver from acetoacetate, the first ketone produced in the fasting state. Its biosynthesis is catalyzed by the enzyme beta-hydroxybutyrate dehydrogenase. The effect of ketone bodies on cell regeneration in primary neuronal cell cultures was tested by using a scratch assay that was followed for 24 hours with a CYTOSMART system.\nas §1"}}}
{"smiles": "CC(O)CC(=O)[O-].[Na+]", "note": "(centres unmarked) [R,S-Sodium-3-hydroxibutyrate]", "values": [{"measurement": "cell nuclei visible around the regeneration site and in the scratch area", "setting": "rat primary neurons [1]", "result": "More cell nuclei are visible around the regeneration site"}, {"measurement": "density of synapsins and tubulin at the regeneration site", "setting": "rat primary neurons [1]", "result": "higher density of synapsins and tubulin"}, {"measurement": "DAPI stained cell nuclei in the scratch space area", "setting": "rat primary neurons [2]; 24 hours, 20× (p=0.01) and 10× (p=0.0004) magnification, versus control", "result": "significantly more DAPI stained cell nuclei"}, {"measurement": "increase in cell coverage per 24 hours", "setting": "rat primary neurons [2]; 24 hours, control about 0.9%", "result": "about 3.3%"}, {"measurement": "cell migration and regeneration of the damaged area", "setting": "rat primary neurons [2]; over the 24-hour period, versus control", "result": "more intense cell migration and regeneration of the damaged area"}]}
